Assay results from patent publication US7629318B2, “Immunosuppressant compounds, methods and uses related thereto” (priority 2002, dated 2009).
Values joined by “and” are separate entries in the source; they are usually repeats but may differ in a detail not shown here. Equal entries are not always repeated. Where two headings read alike, the source gives them in different places. Numbered stars: 1 amine (or outer) side, 2 acyl side, 3 side chain; on linkers, the order of the positions; unused ones are H or OH. Square brackets hold non-standard residues; d marks the D form. Peptide text beside a SMILES is read from it. * marks the point of attachment. ξ: configuration not given here. Gly(1-amidinopiperidin-4-yl) = N=C(N)N1CCC([C@H](N)C(=O)O)CC1; X1 = CC(C)c1oc([C@H](CO)N[*:1])nc1C(=O)[*:2]; Pro(3R-Ph) = O=C(O)[C@H]1NCC[C@@H]1c1ccccc1; Met(O) = CS(=O)CC[C@H](N)C(=O)O; Tic = O=C(O)[C@@H]1Cc2ccccc2CN1; Cha = N[C@@H](CC1CCCCC1)C(=O)O; NMe(benzyl) = CN(Cc1ccccc1)*; ξDisc = O=C(O)C1NCc2ccccc21; Nle = CCCC[C@H](N)C(=O)O; X2 = OCCOCCN(Cc1ccccc1)*; X3 = OCCOCCN*

Legend:
[1] = Stability of compounds in rat blood plasma; format: in vitro ADME
In short: (§1)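 Compounds at 5 μM final in rat, mouse or human plasma, incubated at 37 °C and sampled at 0, 6 and 24 h. Proteins precipitated with acetonitrile and the supernatant dried and reconstituted in 50% acetonitrile/0.1% TFA. PBS controls run for unstable compounds.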

[2] = target: Cathepsin B1 (EC 3.4.22.1 from bovine spleen) (Bos taurus, UniProt P07688); details: Cathepsin B, 4 h
[3] = Stability of compounds in human blood plasma; format: in vitro ADME
In short: as §1

[4] = target: DR4Dw4 (DRA1*0101 DRB1*0401) (Homo sapiens, UniProt P01903+P01911, A100K/A169T/F76Y/I96L/K127E/L162R/M171V/N62H/P40V/Q125Y/R42H/S133A/S149N/S66Y/V115G/V209L/W38E); assay: Competitive binding to MHC-II protein DR4Dw4
In short: (§2)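 Each MHC-II allele incubated with compound 16 hours at room temperature in duplicate; controls lacked compound, or both compound and MHC-II. Complexes captured 2 h at 4 °C, bound biotinylated peptide detected via europium-streptavidin and DELFIA enhancement, time-resolved fluorescence read at ex 340/em 613 (615) nm.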

[5] = target: DR1 (DRA1*0101 DRB1*0101) (Homo sapiens, UniProt P01903+P01911, A100R/D57E/F55L/F60I/F76Y/I96L/L162R/M171V/P40L/Q125E/R42F/V115G/Y59C); assay: Competitive binding to MHC-II protein DR1
In short: as §2

[6] = target: Cathepsin D (EC 3.4.23.5 from bovine spleen) (Bos taurus, UniProt P80209)
[7] = target: DR4Dw14 (DRA1*0101 DRB1*0404) (Homo sapiens, UniProt P01903+P01911, A100R/A169T/F76Y/I96L/K127E/L162R/M171V/N62H/P40V/Q125Y/R42H/S133A/S149N/S66Y/V209L/W38E); assay: Competitive binding to MHC-II protein DR4Dw14; details: 0404; read-out: Protein binding IC50 (nM) 0404
In short: as §2

[8] = system: T-cell proliferation, DR14-LN; details: for Immunsupressive assays DR14-LN (Max) % Inhibition: maximal inhibition; for IC50: read-out: Immunsupressive assays DR14-LN (IC50)
[9] = Protein binding IC50 (nM) 0101, 0101

Row | SMILES | Stability (Arbitrary units) Rat 6 h [1] | Stability (Arbitrary units) Rat 24 h [1] | Stability (Arbitrary units) Cath B 4 h [2] | Stability (Arbitrary units) Human 6 h [3] | Stability (Arbitrary units) Human 24 h [3] | IC50 [4] | IC50 [5, 9] | Stability (Arbitrary units) Cath D 4 h [6] | IC50 [7] | Immunsupressive assays DR14-LN (Max) % Inhibition [8] | IC50 [8] | Stability (Arbitrary units) Human 24 h ([3]; human plasma, 24 h) | IC50 ([4]; read-out: Protein binding IC50 (nM) 0401, 0401) | IC50 ([5]; read-out: Protein binding IC50 (nM) 0101, 0101)
1 | CCCC[C@H](NC(=O)[C@@H]1Cc2ccccc2CN1C(=O)[C@@H](NC(=O)[C@H](CC1CCCCC1)NC(C)=O)C1CCN(C(=N)N)CC1)C(=O)N(C)Cc1ccccc1 [Compound P74, Ac-Cha-Gpg-Tic-Nle-N(Me)Bn] (Ac-[Cha][Gly(1-amidinopiperidin-4-yl)][Tic][Nle]-{NMe(benzyl)}) | 91 Arbitrary units | 71 Arbitrary units | 105 Arbitrary units | 114 Arbitrary units | 125 Arbitrary units | 3400 nM | 360 nM | 104 Arbitrary units | 2200 nM | 97% | 14000 nM |  |  | 
2 | CCCC[C@H](NC(=O)C1c2ccccc2CN1C(=O)[C@@H](NC(=O)[C@H](CC1CCCCC1)NC(C)=O)C1CCN(C(=N)N)CC1)C(=O)N(C)Cc1ccccc1 (single isomer, unassigned) [Compound P78-1] | 80 Arbitrary units | 84 Arbitrary units | 100 Arbitrary units | 93 Arbitrary units | 107 Arbitrary units | 2300 nM | 550 nM | 104 Arbitrary units | 1400 nM |  |  |  |  | 
3 | CSCC[C@H](NC(=O)[C@@H]1Cc2ccccc2CN1C(=O)[C@@H](NC(=O)[C@H](CC1CCCCC1)NC(C)=O)C1CCN(C(=N)N)CC1)C(=O)N(CCOCCO)Cc1ccccc1 [Compound P102, Ac-Cha-Gpg-Tic-Met-N(Bn)CH2CH2OCH2CH2OH] (Ac-[Cha][Gly(1-amidinopiperidin-4-yl)][Tic]M-X2) | 131 Arbitrary units | 121 Arbitrary units | 116 Arbitrary units | 110 Arbitrary units |  | 1700 nM | 580 nM | 120 Arbitrary units | 2100 nM | 100% | 73000 nM | 116 Arbitrary units |  | 
4 | CSCC[C@H](NC(=O)C1c2ccccc2CN1C(=O)[C@@H](NC(=O)[C@H](CC1CCCCC1)NC(C)=O)C1CCN(C(=N)N)CC1)C(N)=O (stereo partly drawn) [Compound P66-1, Ac-Cha-Gpg-Disc-Met-NH2] (Ac-[Cha][Gly(1-amidinopiperidin-4-yl)][ξDisc]M-NH2) | 138 Arbitrary units | 81 Arbitrary units | 102 Arbitrary units | 103 Arbitrary units | 87 Arbitrary units | 290 nM | 290 nM | 101 Arbitrary units | 590 nM |  |  |  |  | 
5 | CCCC[C@H](NC(=O)[C@@H]1Cc2ccccc2CN1C(=O)[C@H](CCCNC(=N)N)NC(=O)[C@H](CC1CCCCC1)NC(C)=O)C(=O)N(C)Cc1ccccc1 [Compound P71, Ac-Cha-Arg-Tic-Nle-N(Me)Bn] (Ac-[Cha]R[Tic][Nle]-{NMe(benzyl)}) | 89 Arbitrary units | 53 Arbitrary units | 97 Arbitrary units | 107 Arbitrary units | 90 Arbitrary units |  |  | 104 Arbitrary units |  | 98% and 96% | 15000 nM |  |  | 
6 | CCCC[C@H](NC(=O)C1c2ccccc2CN1C(=O)[C@@H](NC(=O)[C@H](CC1CCCCC1)NC(C)=O)C1CCN(C(=N)N)CC1)C(=O)N(C)Cc1ccccc1 (single isomer, unassigned) [Compound P76-1, Ac-Cha-Gpg-Disc-Nle-N(Me)Bn] | 80 Arbitrary units | 84 Arbitrary units | 100 Arbitrary units | 93 Arbitrary units | 107 Arbitrary units |  |  | 104 Arbitrary units | 1400 nM |  |  |  | 2300 nM | 550 nM
7 | CSCC[C@H](NC(=O)C1c2ccccc2CN1C(=O)[C@H](CCCNC(=N)N)NC(=O)[C@H](CC1CCCCC1)NC(C)=O)C(N)=O (stereo partly drawn) [Compound P12-1, Ac-Cha-Arg-Disc-Met-NH2] (Ac-[Cha]R[ξDisc]M-NH2) | 67 Arbitrary units | 10 Arbitrary units | 96 Arbitrary units | 75 Arbitrary units | 0 Arbitrary units | 370 nM | 430 nM | 103 Arbitrary units | 860 nM |  |  |  |  | 
8 | CCCC[C@H](NC(=O)[C@@H]1Cc2ccccc2CN1C(=O)[C@@H](NC(=O)[C@H](CC1CCCCC1)NC(C)=O)C1CCN(C(=N)N)CC1)C(=O)NCCOCCO [Compound P70, Ac-Cha-Gpg-Tic-Nle-N(H)CH2CH2OCH2CH2OH] (Ac-[Cha][Gly(1-amidinopiperidin-4-yl)][Tic][Nle]-X3) | 83 Arbitrary units | 65 Arbitrary units | 110 Arbitrary units | 116 Arbitrary units | 90 Arbitrary units | 440 nM | 90 nM | 112 Arbitrary units | 290 nM |  |  |  |  | 
9 | CC(=O)N[C@@H](CC1CCCCC1)C(=O)N[C@H](C(=O)N1Cc2ccccc2C[C@H]1C(=O)N[C@@H](CC[S+](C)[O-])C(=O)N1CC[C@H](c2ccccc2)[C@H]1C(=O)N[C@@H](CO)c1nc(C(=O)N(C)C)c(C(C)C)o1)C1CCN(C(=N)N)CC1 (stereo partly drawn) [Compound P47, Ac-Cha-Gpg-Tic-Met(O)-βPhPro-[S(oxaz)L]-NMe2] (Ac-[Cha][Gly(1-amidinopiperidin-4-yl)][Tic][Met(O)][Pro(3R-Ph)][X1]-NMe2) | 116 Arbitrary units | 103 Arbitrary units | 100 Arbitrary units | 126 Arbitrary units | 140 Arbitrary units | 180 nM | 330 nM | 99 Arbitrary units | 580 nM |  |  |  |  | 
10 | CSCC[C@H](NC(=O)[C@@H]1Cc2ccccc2CN1C(=O)[C@H](CCCNC(=N)N)NC(=O)[C@H](CC1CCCCC1)NC(C)=O)C(N)=O [Compound P1, Ac-Cha-Arg-Tic-Met-NH2] (Ac-[Cha]R[Tic]M-NH2) | 11 Arbitrary units | 0 Arbitrary units | 87 Arbitrary units | 94 Arbitrary units |  | 1600 nM | 260 nM | 102 Arbitrary units | 2300 nM |  |  |  |  | 
